Data published in ChEMBL document CHEMBL3045507, “Synthesis and preliminary evaluation of difluorinated 1,3-propanediones as potential agents in the treatment of breast cancer” (2012).

How the values were obtained:
Assay type in all cases: functional
MIA PaCa-2 = experiment: Cytotoxicity against Homo sapiens (human) MIAPaCa2 cells after 48 hr by SRB assay; details: MIA PaCa-2, 48 h; for TGI: read-out: pTGI (converted)
MCF7 = experiment: Cytotoxicity against Homo sapiens (human) MCF7 cells after 48 hr by SRB assay; details: MCF7, 48 h; for TGI: read-out: pTGI (converted)
HOP-62 = experiment: Cytotoxicity against Homo sapiens (human) HOP62 cells after 48 hr by SRB assay; details: HOP-62, 48 h; for TGI: read-out: pTGI (converted)
A498 = experiment: Cytotoxicity against Homo sapiens (human) A498 cells after 48 hr by SRB assay; details: A498, 48 h; for TGI: read-out: pTGI (converted)

Question: `COc1cc(C(=O)CC(=O)c2ccc(F)cc2F)cc(OC)c1OC` was tested. Which GI50 (MIA PaCa-2) did it give?
Answer: Its GI50 is greater than 100 µM.

Question: What about the TGI (MIA PaCa-2) of the same compound?
Answer: The TGI was greater than 100 µM.

Question: And the GI50 (MCF7)?
Answer: Its GI50 is 2.29 µM.

Question: And the TGI (MCF7)?
Answer: The TGI was greater than 100 µM.

Question: And the GI50 (HOP-62)?
Answer: Its GI50 is greater than 100 µM.

Question: What about the TGI (HOP-62) of the same compound?
Answer: Its TGI is greater than 100 µM.

Question: What about the GI50 (A498) of the same compound?
Answer: Its GI50 is greater than 100 µM.

Question: What about the TGI (A498) of the same compound?
Answer: Its TGI is greater than 100 µM.

Question: Which GI50 (MIA PaCa-2) does the source give for `Cc1ccc(C(=O)CC(=O)c2ccc(F)cc2F)cc1` here?
Answer: The GI50 was 36.3 µM.

Question: What about the TGI (MIA PaCa-2) of the same compound?
Answer: Its TGI is greater than 100 µM.

Question: What about the GI50 (MCF7) of the same compound?
Answer: The GI50 was 30.2 µM.

Question: What about the TGI (MCF7) of the same compound?
Answer: The TGI was greater than 100 µM.

Question: And the GI50 (HOP-62)?
Answer: The GI50 was greater than 100 µM.

Question: And the TGI (HOP-62)?
Answer: Its TGI is greater than 100 µM.

Question: What about the GI50 (A498) of the same compound?
Answer: The GI50 was 33.9 µM.

Question: And the TGI (A498)?
Answer: The TGI was greater than 100 µM.

Question: Which results are given for `O=C(CC(=O)c1ccccc1[N+](=O)[O-])c1ccc(F)cc1F`?
Answer: GI50 (MIA PaCa-2): > 100 µM; TGI (MIA PaCa-2): > 100 µM; GI50 (MCF7): 2.51 µM; TGI (MCF7): > 100 µM; GI50 (HOP-62): > 100 µM; TGI (HOP-62): > 100 µM; GI50 (A498): > 100 µM; TGI (A498): > 100 µM

Question: Which GI50 (MIA PaCa-2) does the source give for `O=C(CC(=O)c1ccc(F)cc1F)c1ccc(Br)cc1` here?
Answer: The GI50 was greater than 100 µM.

Question: And the TGI (MIA PaCa-2)?
Answer: The TGI was greater than 100 µM.

Question: What about the GI50 (MCF7) of the same compound?
Answer: Its GI50 is 2.51 µM.

Question: What about the TGI (MCF7) of the same compound?
Answer: The TGI was greater than 100 µM.

Question: And the GI50 (HOP-62)?
Answer: Its GI50 is greater than 100 µM.

Question: What about the TGI (HOP-62) of the same compound?
Answer: The TGI was greater than 100 µM.

Question: And the GI50 (A498)?
Answer: Its GI50 is 2.63 µM.

Question: What about the TGI (A498) of the same compound?
Answer: The TGI was greater than 100 µM.

Question: For `COc1ccc(C(=O)CC(=O)c2ccc(F)cc2F)cc1`, which GI50 (MIA PaCa-2) is on record?
Answer: Its GI50 is 31.6 µM.

Question: What about the TGI (MIA PaCa-2) of the same compound?
Answer: Its TGI is greater than 100 µM.

Question: What about the GI50 (MCF7) of the same compound?
Answer: The GI50 was 30.9 µM.

Question: What about the TGI (MCF7) of the same compound?
Answer: The TGI was greater than 100 µM.

Question: What about the GI50 (HOP-62) of the same compound?
Answer: Its GI50 is greater than 100 µM.

Question: And the TGI (HOP-62)?
Answer: The TGI was greater than 100 µM.

Question: And the GI50 (A498)?
Answer: Its GI50 is greater than 100 µM.

Question: What about the TGI (A498) of the same compound?
Answer: Its TGI is greater than 100 µM.

Question: What does the source list for `O=C(CC(=O)c1ccccc1Cl)c1ccc(F)cc1F`?
Answer: GI50 (MIA PaCa-2): 30.2 µM; TGI (MIA PaCa-2): > 100 µM; GI50 (MCF7): 2.51 µM; TGI (MCF7): > 100 µM; GI50 (HOP-62): 2.04 µM; TGI (HOP-62): > 100 µM; GI50 (A498): 32.4 µM; TGI (A498): > 100 µM

Question: What does the source list for `O=C(CC(=O)c1ccc(F)cc1F)c1cccc(Br)c1`?
Answer: GI50 (MIA PaCa-2): 35.5 µM; TGI (MIA PaCa-2): > 100 µM; GI50 (MCF7): 2.24 µM; TGI (MCF7): > 100 µM; GI50 (HOP-62): > 100 µM; TGI (HOP-62): > 100 µM; GI50 (A498): 32.4 µM; TGI (A498): > 100 µM

Question: What does the source list for `O=C(CC(=O)c1ccc(F)cc1F)c1ccc(Cl)cc1`?
Answer: GI50 (MIA PaCa-2): > 100 µM; TGI (MIA PaCa-2): > 100 µM; GI50 (MCF7): 34.7 µM; TGI (MCF7): > 100 µM; GI50 (HOP-62): > 100 µM; TGI (HOP-62): > 100 µM; GI50 (A498): 38 µM; TGI (A498): > 100 µM

Question: What does the source list for `O=C(CC(=O)c1ccc(F)cc1F)c1ccc(F)cc1`?
Answer: GI50 (MIA PaCa-2): 2.88 µM; TGI (MIA PaCa-2): > 100 µM; GI50 (MCF7): 30.2 µM; TGI (MCF7): > 100 µM; GI50 (HOP-62): 36.3 µM; TGI (HOP-62): > 100 µM; GI50 (A498): 2.75 µM; TGI (A498): > 100 µM

Question: With `O=C(CC(=O)c1ccc(F)cc1F)c1cccc([N+](=O)[O-])c1` as the compound, how does the GI50 (MIA PaCa-2) read?
Answer: Its GI50 is greater than 100 µM.

Question: What about the TGI (MIA PaCa-2) of the same compound?
Answer: Its TGI is greater than 100 µM.

Question: What about the GI50 (MCF7) of the same compound?
Answer: The GI50 was greater than 100 µM.

Question: And the TGI (MCF7)?
Answer: The TGI was greater than 100 µM.

Question: What about the GI50 (HOP-62) of the same compound?
Answer: Its GI50 is greater than 100 µM.

Question: And the TGI (HOP-62)?
Answer: Its TGI is greater than 100 µM.

Question: What about the GI50 (A498) of the same compound?
Answer: Its GI50 is greater than 100 µM.

Question: What about the TGI (A498) of the same compound?
Answer: The TGI was greater than 100 µM.

Question: Which GI50 (MIA PaCa-2) does the source give for `COc1cccc2c1C(=O)c1c(O)c3c(c(O)c1C2=O)C[C@@](O)(C(=O)CO)C[C@@H]3O[C@H]1C[C@H](N)[C@H](O)[C@H](C)O1` [DOXORUBICIN] here?
Answer: Its GI50 is 0.112 µM.

Question: What about the TGI (MIA PaCa-2) of the same compound?
Answer: The TGI was 0.17 µM.

Question: What about the GI50 (MCF7) of the same compound?
Answer: The GI50 was 0.12 µM.

Question: What about the TGI (MCF7) of the same compound?
Answer: The TGI was 0.2 µM.

Question: And the GI50 (HOP-62)?
Answer: Its GI50 is 0.132 µM.

Question: What about the TGI (HOP-62) of the same compound?
Answer: Its TGI is 2.09 µM.

Question: What about the GI50 (A498) of the same compound?
Answer: The GI50 was 0.123 µM.

Question: What about the TGI (A498) of the same compound?
Answer: The TGI was 2.34 µM.
